{"source": "patent US20250345317A1", "about": "“New pharmaceutical compounds, methods and uses thereof” (BBIT-THERAPEUTICS, LDA., priority 2020, published 2025)", "key": {"[1]": {"system": "triple-negative breast cancer and ovarian cancer cells", "test": "Cell cycle progression by flow cytometry (propidium iodide)", "assay_type": "cell-based, human", "conditions": "MDA-MB-231 cells, 6 and 12 μM, 48 hours", "protocol": "(§1) Cell cycle phases were analysed by flow cytometry using propidium iodide (PI) and quantified using the FlowJo software. Apoptosis and ROS were analysed by flow cytometry using FITC-Annexin V/PI and 2′,7′-dichlorodihydrofluorescein diacetate (H2DCFDA) respectively.\nIn an embodiment, the COMP compound modulated the expression of key proteins involved in homologous DNA repair, proliferation, chemoresistance, induced cell cycle arrest, apoptosis and ROS generation, in triple-negative breast cancer and ovarian cancer cells."}, "[2]": {"system": "PD-OVCA#1 (Lack of exon 17 in BRCA1)", "test": "Growth inhibition, MTS assay, PD-OVCA#1", "assay_type": "cell-based, human", "conditions": "Homo sapiens, PD-OVCA#1, pathogenic mutant BRCA1/2, 48 hours", "source_text": "(§2) Table 2 refers to the growth inhibitory effect of COMP, olaparib and cisplatin (CDDP) in a panel of human immortalized breast (T47D, MCF-7, MDA-MB-231, MDA-MB-468, SK-BR-3 and HCC1937), ovarian and endocervical (OCVAR, SKOV-3, […],IGROV-1 and HeLa), pancreatic (PANC-1 and MIAPACA), neuroblastoma (SHSY-5Y), lung (NCI-H460), prostate (VCaP) melanoma (A375 and SK-MEL-5) and glioblastoma (SF-208) cancer cells, immortalized normal MCF10a and HFF1 human cells, and patient-derived ovarian (PD-OVCA #1, #9, #41, #49 and #62) cancer cells. […] Data are mean±SEM (n=5).\n(§3) In an embodiment, IC50 values were determined by Sulforhodamine B (SRB) or MTS [3-(4,5-dimethylthiazol-2-yl)-5-(3-carboxymethoxyphenyl)-2-(4-sulfophenyl)-2H-tetrazolium] assay in immortalized and PD-OVCA cells, respectively. Cancer cells were plated in 96-well plates and incubated for 24 hours. Cells were then exposed to serial dilutions of compounds for 48 hours. The solvent DMSO corresponding to the maximum concentration used in these assays (0.025%) was included as control. Results are the mean±S.E.M. of 3-5 independent experiments."}, "[3]": {"system": "T47D", "test": "Growth inhibition, SRB assay, T47D", "assay_type": "cell-based, human", "conditions": "Homo sapiens, 48 h", "source_text": "as §2, §3"}, "[4]": {"system": "OVCAR-3", "test": "Growth inhibition, SRB assay, OVCAR-3", "assay_type": "cell-based, human", "conditions": "Homo sapiens, OVCAR-3, 48 h", "source_text": "as §2, §3"}, "[5]": {"system": "phosphorylated (Ser139) histone H2AX (γH2AX)", "test": "γH2AX expression and foci formation", "assay_type": "cell-based, human", "conditions": "12 μM, 48 hours; MDA-MB-231, HCC1937 and IGROV-1 cells", "protocol": "(§4) FIG. 10 illustrates the effect of 12 μM COMP on (A) γH2AX expression levels and on (FIG. 10B) γH2AX and RAD51 foci formation, and BRCA1 foci formation and cellular localization after 48 hours of treatment. […] FIG. 10B are representative images generated using Fiji software (scale bar=100 μm; 400 × magnification).\nIn an embodiment, 12 μM of COMP increased the amount of phosphorylated (Ser139) histone H2AX (γH2AX) (FIG. 10A) and the number of γH2AX-positive foci formed in MDA-MB-231, HCC1937 and IGROV-1 cells (FIG. 10B and FIG. 10C)."}, "[6]": {"system": "HCC1937 mammospheres", "test": "3D-mammosphere model", "assay_type": "cell-based, human", "protocol": "FIG. 5 illustrates the effect of COMP on (A-B) HCC1937 mammosphere formation after 72 hours of treatment with COMP; treatment was performed at seeding time of HCC1937 cells or at (C-D) three-day-old HCC1937 mammospheres for up to 11 days of treatment. FIG. 5A and FIG. 5C are representative images (scale bar=50 μm, 100× magnification)."}, "[7]": {"system": "MDA-MB-231, HCC1937 and IGROV-1 cells", "test": "Combination with CDDP or olaparib, SRB assay", "assay_type": "cell-based, human", "conditions": "single concentration of COMP with concentration range of CDDP or olaparib, 48 hours; CI<1, synergy", "protocol": "FIG. 13 illustrates that COMP sensitizes triple-negative breast cancer and ovarian cancer cells to the effect of cisplatin (CDDP) and olaparib. Cells were treated with a concentration range of CDDP and olaparib alone and in combination with a single concentration of COMP (with no significant effect on cells growth) in MDA-MB-231 (FIG. 13A), HCC1937 (FIG. 13B) and IGROV-1 (FIG. 13C). Cell proliferation was measured by SRB assay after 48 hours of treatment; growth obtained with control (DMSO) was set as 100%. […] Combination index (CI) and dose-reduction index (DRI) for each combined treatment were calculated using CompuSyn software (CI<1, synergy; 1<CI<1.1, addictive effect; CI>1.1, antagonism); data were calculated using a mean value effect of six independent experiments.\nIn an embodiment, COMP sensitizes triple-negative breast cancer and ovarian cancer cells to the effect of CDDP and olaparib as shown by the enhancement of the growth inhibitory effect and promising synergistic effects between COMP and CDDP or olaparib (CI<1), with a noticeable reduction in the effective dose of chemotherapeutic agents (FIGS. 13A-C)."}, "[8]": {"system": "MDA-MB-231, HCC1937 and IGROV-1 cells", "test": "DNA damage by comet assay", "assay_type": "cell-based, human", "conditions": "6 μM and 12 μM, 48 hours", "protocol": "FIG. 8 illustrates the effect of 6 and 12 μM COMP on triple-negative breast cancer and ovarian cancer cells' DNA damage after 48 hours of treatment, measured by comet assay. FIG. 8A are representative images (scale bar=20 μm; 200× magnification).\nIn an embodiment, COMP decreased homologous recombination DNA repair and disrupted the BRCA1-BARD1 interaction."}, "[9]": {"system": "PD-OVCA#9 (mutBRCA1: c. 4389C > G; mutBRCA2: c6252delT)", "test": "Growth inhibition, MTS assay, PD-OVCA#9", "assay_type": "cell-based, human", "conditions": "Homo sapiens, PD-OVCA#9, pathogenic mutant BRCA1/2, 48 hours", "source_text": "as §2, §3"}, "[10]": {"system": "RAD51", "test": "RAD51 foci formation by immunofluorescence", "assay_type": "cell-based, human", "conditions": "12 μM, 48 hours", "protocol": "as §4"}, "[11]": {"system": "triple-negative breast cancer and ovarian cancer cells", "test": "ROS generation (H2DCFDA flow cytometry)", "assay_type": "cell-based, human", "conditions": "6 and 12 μM, 48 hours", "protocol": "as §1"}, "[12]": {"system": "A375", "test": "Growth inhibition, SRB assay, A375", "assay_type": "cell-based", "conditions": "Homo sapiens, A-375, A375, wild-type BRCA1/2, 48 hours", "source_text": "as §2, §3"}, "[13]": {"system": "HeLa", "test": "Growth inhibition, SRB assay, HeLa", "assay_type": "cell-based", "conditions": "Homo sapiens, wild-type BRCA1/2, 48 hours", "source_text": "as §2, §3"}}, "data": [{"smiles": "CC[C@H]1CN(C)C2Cc3c([nH]c4ccccc34)/C(=N/Nc3ccc(Br)cn3)C[C@@H]1[C@@H]2C(=O)OC", "note": "[COMP, methyl (5R,6S,14S,E)-8-(2-(5-bromopyridin-2-yl) hydrazineylidene)-5-ethyl-3-methyl-2,3,4,5,6,7,8,9-octahydro-1H-2,6-methanoazecino [5,4-b]indole-14-carboxylate]", "values": [{"measurement": "cell cycle arrest phase", "setting": "[1]", "result": "cell cycle arrest at G0/G1-"}, {"measurement": "IC50", "setting": "[2]", "result": "2.7 ± 0.6", "unit": "µM"}, {"measurement": "IC50", "setting": "[3]; BRCA1 wild-type, 48 hours (second Table 2)", "result": 11.5, "unit": "µM"}, {"measurement": "IC50", "setting": "[3]; wild-type BRCA1/2, 48 hours", "result": "11.5 ± 3", "unit": "µM"}, {"measurement": "IC50", "setting": "[4]; OVCAR-3, BRCA1 wild-type, 48 hours (second Table 2)", "result": 13.9, "unit": "µM"}, {"measurement": "IC50", "setting": "[4]; OVCAR-3, wild-type BRCA1/2, 48 hours", "result": "13.9 ± 1.7", "unit": "µM"}, {"measurement": "amount of γH2AX and number of γH2AX-positive foci", "setting": "[5]", "result": "increased"}, {"measurement": "mammosphere growth in three-day old spheroids", "setting": "[6]; 6 μM and 12 μM, up to 11 days", "result": "markedly reduced"}, {"measurement": "mammosphere (spheroids) formation", "setting": "[6]; 6 μM, added upon seeding of HCC1937 cells, 72 hours", "result": "complete abolishment of spheroids formation"}, {"measurement": "mammosphere integrity in three-day old spheroids", "setting": "[6]; 12 μM, up to 11 days", "result": "triggering mammosphere disintegration"}, {"measurement": "Combination index (CI) of COMP with CDDP or olaparib", "setting": "[7]", "result": "< 1"}, {"measurement": "percentage of comet-positive cells (tail DNA, tail moment)", "setting": "[8]", "result": "significantly increased"}, {"measurement": "IC50", "setting": "[9]", "result": "5.1 ± 1", "unit": "µM"}, {"measurement": "RAD51-foci formation", "setting": "[10]", "result": "pronounced reduction"}, {"measurement": "ROS production", "setting": "[11]", "result": "increases ROS production"}, {"measurement": "IC50", "setting": "[12]", "result": "15.5 ± 0.5", "unit": "µM"}, {"measurement": "IC50", "setting": "[13]", "result": "5.8 ± 0.8", "unit": "µM"}]}]}
